Tests used:
Test in all cases: Large panel kinase profiling
Type in all cases: biochemical
Details in all cases: 1 μM test article, 1 mM ATP
[1] = molecular target: T1, NTRK1/TRKA (Homo sapiens, UniProt P04629)
T1 construct: AssayQuant Technologies, Inc. (assay service)
How it was run: (§1)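 Activity is measured in real time from the CSox sensor's fluorescence at 485 nm after 360 nm excitation, sampled every minute. Assays run at 30° C. with 1 mM ATP and a single 1 μM compound dose.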

[2] = molecular target: T2, MAPK13/P38D (Homo sapiens, UniProt O15264)
T2 construct: AssayQuant Technologies, Inc. (service provider)
T2 sequence (O15264 1-365): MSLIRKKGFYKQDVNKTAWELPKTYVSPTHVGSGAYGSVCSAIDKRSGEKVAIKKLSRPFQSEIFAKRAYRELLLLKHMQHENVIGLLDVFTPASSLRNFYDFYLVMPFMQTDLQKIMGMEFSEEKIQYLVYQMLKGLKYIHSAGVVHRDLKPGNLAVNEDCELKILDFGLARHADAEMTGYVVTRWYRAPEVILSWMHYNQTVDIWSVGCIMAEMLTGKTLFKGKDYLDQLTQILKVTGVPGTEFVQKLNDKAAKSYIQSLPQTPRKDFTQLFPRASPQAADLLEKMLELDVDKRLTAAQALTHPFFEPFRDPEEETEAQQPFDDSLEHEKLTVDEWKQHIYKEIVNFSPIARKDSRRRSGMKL
How it was run: as §1

[3] = molecular target: PTK6 (Homo sapiens, UniProt Q13882)
How it was run: as §1

[4] = molecular target: T3, PRKD3 (Homo sapiens, UniProt O94806)
T3 sequence (O94806 1-890): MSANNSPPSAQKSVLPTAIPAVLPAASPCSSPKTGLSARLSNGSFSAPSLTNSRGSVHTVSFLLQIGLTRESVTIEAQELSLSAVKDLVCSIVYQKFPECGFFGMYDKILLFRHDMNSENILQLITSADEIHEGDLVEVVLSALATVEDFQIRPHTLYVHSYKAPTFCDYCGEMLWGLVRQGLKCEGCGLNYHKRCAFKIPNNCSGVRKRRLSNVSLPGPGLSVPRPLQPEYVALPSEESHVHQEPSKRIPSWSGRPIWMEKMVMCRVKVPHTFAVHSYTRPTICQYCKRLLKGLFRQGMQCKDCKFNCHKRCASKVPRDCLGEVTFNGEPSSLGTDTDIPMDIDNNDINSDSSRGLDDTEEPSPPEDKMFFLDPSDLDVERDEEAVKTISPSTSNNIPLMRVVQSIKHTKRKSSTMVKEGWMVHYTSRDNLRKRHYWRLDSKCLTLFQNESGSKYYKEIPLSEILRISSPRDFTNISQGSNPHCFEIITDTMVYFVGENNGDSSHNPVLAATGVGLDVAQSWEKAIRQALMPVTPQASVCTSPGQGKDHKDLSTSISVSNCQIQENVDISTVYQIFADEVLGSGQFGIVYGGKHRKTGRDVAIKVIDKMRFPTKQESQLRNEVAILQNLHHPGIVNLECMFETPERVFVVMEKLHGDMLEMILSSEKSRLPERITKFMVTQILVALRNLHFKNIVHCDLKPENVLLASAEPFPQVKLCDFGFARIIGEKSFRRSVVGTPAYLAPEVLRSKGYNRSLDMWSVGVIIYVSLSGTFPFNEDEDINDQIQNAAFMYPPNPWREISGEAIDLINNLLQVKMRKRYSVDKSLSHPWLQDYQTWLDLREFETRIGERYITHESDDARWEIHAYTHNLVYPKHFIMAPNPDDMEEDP
How it was run: as §1

[5] = molecular target: KDR (Homo sapiens, UniProt P35968)
How it was run: as §1

[6] = molecular target: T4, AXL (Homo sapiens, UniProt P30530)
T4 sequence (P30530 26-894): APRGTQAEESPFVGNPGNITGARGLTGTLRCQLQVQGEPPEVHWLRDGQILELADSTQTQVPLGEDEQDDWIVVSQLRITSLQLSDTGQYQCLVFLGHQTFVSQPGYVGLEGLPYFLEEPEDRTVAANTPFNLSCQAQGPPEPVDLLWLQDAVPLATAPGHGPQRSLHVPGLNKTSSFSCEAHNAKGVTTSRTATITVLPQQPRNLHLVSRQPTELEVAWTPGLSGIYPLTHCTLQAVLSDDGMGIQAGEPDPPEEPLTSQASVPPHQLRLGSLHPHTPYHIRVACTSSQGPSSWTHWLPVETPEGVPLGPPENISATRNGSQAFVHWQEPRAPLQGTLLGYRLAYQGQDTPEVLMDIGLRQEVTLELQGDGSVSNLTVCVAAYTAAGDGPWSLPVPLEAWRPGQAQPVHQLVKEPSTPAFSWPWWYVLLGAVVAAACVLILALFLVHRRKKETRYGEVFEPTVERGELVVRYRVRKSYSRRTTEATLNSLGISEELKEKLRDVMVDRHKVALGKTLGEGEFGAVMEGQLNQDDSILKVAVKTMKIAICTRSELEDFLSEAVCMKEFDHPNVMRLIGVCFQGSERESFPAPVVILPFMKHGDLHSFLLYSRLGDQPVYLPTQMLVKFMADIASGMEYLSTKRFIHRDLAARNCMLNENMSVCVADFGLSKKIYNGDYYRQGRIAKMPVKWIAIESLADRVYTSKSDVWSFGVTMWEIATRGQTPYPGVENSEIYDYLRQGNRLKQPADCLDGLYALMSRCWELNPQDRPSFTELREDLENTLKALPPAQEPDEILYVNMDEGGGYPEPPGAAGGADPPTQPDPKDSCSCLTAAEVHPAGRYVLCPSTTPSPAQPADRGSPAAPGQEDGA
How it was run: as §1

[7] = molecular target: T5, CLK2 (Homo sapiens, UniProt P49760)
T5 construct: AssayQuant Technologies, Inc. (service laboratory)
How it was run: as §1

T5 sequence (P49760 whole entry, species assumed): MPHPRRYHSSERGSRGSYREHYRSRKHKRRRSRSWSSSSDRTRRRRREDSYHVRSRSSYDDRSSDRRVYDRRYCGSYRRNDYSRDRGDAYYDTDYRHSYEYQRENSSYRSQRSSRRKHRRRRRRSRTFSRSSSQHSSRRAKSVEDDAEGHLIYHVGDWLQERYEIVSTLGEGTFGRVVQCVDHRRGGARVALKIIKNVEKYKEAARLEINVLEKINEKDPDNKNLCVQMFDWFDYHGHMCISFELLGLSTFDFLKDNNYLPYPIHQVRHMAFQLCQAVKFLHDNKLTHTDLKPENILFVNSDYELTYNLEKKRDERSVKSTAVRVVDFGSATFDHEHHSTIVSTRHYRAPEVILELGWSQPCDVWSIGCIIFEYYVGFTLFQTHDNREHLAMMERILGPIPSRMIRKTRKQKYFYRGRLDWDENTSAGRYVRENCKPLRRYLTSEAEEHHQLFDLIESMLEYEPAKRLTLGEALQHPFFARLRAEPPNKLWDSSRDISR
KDR, sequence (P35968 20-1356, species assumed): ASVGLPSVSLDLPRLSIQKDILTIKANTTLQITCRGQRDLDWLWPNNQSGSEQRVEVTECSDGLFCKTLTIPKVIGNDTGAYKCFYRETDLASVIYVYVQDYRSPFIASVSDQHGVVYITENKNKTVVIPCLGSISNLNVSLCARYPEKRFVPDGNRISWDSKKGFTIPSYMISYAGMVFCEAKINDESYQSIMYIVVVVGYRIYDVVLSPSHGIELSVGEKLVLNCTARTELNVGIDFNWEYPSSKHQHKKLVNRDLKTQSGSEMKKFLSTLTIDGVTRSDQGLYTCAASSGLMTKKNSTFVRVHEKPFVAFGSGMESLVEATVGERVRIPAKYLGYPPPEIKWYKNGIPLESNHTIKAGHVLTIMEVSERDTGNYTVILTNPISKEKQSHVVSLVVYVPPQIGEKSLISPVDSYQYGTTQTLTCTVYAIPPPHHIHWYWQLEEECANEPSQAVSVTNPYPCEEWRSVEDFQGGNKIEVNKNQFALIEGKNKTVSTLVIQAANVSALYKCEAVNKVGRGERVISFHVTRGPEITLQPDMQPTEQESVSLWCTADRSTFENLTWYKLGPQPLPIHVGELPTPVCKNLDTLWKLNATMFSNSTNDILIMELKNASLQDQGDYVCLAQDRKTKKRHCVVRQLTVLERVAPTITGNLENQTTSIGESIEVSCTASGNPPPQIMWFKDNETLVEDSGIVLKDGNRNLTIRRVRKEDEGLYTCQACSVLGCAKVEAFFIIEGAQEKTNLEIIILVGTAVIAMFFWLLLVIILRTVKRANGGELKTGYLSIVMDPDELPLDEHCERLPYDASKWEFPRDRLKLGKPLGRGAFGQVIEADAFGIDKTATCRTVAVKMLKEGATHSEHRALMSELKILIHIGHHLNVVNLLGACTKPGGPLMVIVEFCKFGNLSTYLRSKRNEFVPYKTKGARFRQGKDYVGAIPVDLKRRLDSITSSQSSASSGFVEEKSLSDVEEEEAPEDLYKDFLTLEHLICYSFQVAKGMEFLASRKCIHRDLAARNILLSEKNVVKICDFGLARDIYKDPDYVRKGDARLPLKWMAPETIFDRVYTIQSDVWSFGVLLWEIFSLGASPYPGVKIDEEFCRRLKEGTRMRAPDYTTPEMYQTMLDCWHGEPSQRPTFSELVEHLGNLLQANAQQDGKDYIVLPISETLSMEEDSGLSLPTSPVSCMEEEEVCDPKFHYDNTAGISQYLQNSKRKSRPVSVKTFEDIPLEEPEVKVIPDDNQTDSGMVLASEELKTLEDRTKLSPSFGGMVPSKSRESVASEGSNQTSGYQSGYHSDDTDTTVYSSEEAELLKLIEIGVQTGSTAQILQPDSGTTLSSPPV
T1 sequence (P04629 33-796): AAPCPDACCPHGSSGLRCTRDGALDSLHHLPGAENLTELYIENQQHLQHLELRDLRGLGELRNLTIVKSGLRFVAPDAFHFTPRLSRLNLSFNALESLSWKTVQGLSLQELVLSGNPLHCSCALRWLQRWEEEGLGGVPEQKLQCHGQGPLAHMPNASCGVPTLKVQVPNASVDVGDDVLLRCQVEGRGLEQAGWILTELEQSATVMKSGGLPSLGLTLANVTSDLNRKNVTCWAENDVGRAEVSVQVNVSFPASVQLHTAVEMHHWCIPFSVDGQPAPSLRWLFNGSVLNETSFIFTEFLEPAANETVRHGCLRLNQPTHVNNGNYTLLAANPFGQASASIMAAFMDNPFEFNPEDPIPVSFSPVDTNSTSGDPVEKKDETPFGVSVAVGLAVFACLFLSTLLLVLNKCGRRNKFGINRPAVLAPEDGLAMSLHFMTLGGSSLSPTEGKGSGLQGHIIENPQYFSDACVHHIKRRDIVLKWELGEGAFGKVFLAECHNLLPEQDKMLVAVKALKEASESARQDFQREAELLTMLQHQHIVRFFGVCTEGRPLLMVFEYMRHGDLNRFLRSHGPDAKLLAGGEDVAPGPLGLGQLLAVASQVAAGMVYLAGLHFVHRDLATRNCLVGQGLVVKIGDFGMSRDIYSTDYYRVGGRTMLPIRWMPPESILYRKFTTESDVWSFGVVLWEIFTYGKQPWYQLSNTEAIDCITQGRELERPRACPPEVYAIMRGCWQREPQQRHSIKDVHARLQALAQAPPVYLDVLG
PTK6, sequence (Q13882 whole entry, species assumed): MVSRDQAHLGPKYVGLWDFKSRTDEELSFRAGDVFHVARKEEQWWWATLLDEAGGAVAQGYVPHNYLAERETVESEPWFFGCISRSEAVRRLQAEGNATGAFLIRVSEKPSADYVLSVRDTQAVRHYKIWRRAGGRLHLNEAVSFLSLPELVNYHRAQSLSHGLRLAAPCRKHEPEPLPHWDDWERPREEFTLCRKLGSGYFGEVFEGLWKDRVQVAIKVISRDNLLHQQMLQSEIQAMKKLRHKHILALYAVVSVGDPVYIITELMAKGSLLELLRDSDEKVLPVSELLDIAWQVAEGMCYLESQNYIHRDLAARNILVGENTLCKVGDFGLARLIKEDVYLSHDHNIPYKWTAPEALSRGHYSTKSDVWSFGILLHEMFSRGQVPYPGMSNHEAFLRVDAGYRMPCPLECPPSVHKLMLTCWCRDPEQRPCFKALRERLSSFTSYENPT

SMILES	inhibition at 1 µM [1]	inhibition at 1 µM [2]	inhibition at 1 µM [3]	inhibition at 1 µM [4]	inhibition at 1 µM [5]	inhibition at 1 µM [6]	inhibition at 1 µM [7]
C=CC(=O)N1CCCC(c2c(F)cc(C(N)=O)c3[nH]c4c(c23)CCCCC4)C1 (single isomer, unassigned) [Compound 5-6]	-5%	6.7%	-14.1%	4.4%	10.3%	-20.3%	0.7%
C=CC(=O)N1CCC[C@@H](c2c(F)cc(C(N)=O)c3[nH]c4c(c23)CC2(CC4)CC2)C1 [Compound 6-2, (S)-5-(1-acryloylpiperidin-3-yl)-6-fluoro-1,2,4,9-tetrahydrospiro[carbazole-3,1′-cyclopropane]-8-carboxamide]	19.6%	26%	22.2%	-62.4%	31.6%	1.5%	-4.6%
C=CC(=O)N1CCC[C@@H](c2c(F)cc(C(N)=O)c3[nH]c4c(c23)CCC4)C1 [Compound 10-2, (S)-8-(1-acryloylpiperidin-3-yl)-7-fluoro-1,2,3,4-tetrahydrocyclo-penta[b]indole-5-carboxamide]	21.6%	9%	10.1%	-65.4%	32.7%	-1.7%	-3.2%
